Assay results taken from the supplement of paper PMC11061612.

Tests used:
Experiment in all cases: Bliss excess, mean over the matrix (fraction); higher = more synergy
[1] = test system: C2BBe1 (Colorectal Carcinoma)
Outline: (§1)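 Cell lines grown in DMEM/F12 or RPMI with 10% FBS were plated in 1536-well plates and held 24 hours at 37°C, 5% CO2 before 72 hours of exposure to two-drug dose matrices, with DMSO typically at 0.2%. CellTiter-Glo 2.0 luminescence gave viability, which was converted to inhibition. Vehicle wells were set to 0 and blank wells to 1. Combination Emax is the second-highest inhibition in the matrix, and Bliss excess is the observed combination effect minus the expected EA + EB − EA·EB, where EA and EB are the single-agent effects.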

[2] = test system: COR-L105 (Lung Adenocarcinoma)
Outline: as §1

[3] = test system: GCIY (Gastric Carcinoma)
Outline: as §1

[4] = test system: HT-1197 (Bladder Carcinoma)
Outline: as §1

[5] = test system: JURL-MK1 (Chronic Myelogenous Leukemia)
Outline: as §1

[6] = test system: L-363 (Plasma Cell Myeloma)
Outline: as §1

[7] = test system: MG-63 (Osteosarcoma)
Outline: as §1

[8] = test system: MRK-nu-1 (Breast Carcinoma)
Outline: as §1

[9] = test system: NCI-H1048 (Small Cell Lung Carcinoma)
Outline: as §1

[10] = test system: NCI-H1975 (Lung Adenocarcinoma)
Outline: as §1

[11] = test system: NCI-H835 (Other Solid Carcinomas)
Outline: as §1

[12] = test system: NTERA-2-cl-D1 (Other Solid Carcinomas)
Outline: as §1

[13] = test system: RS4-11 (B-Lymphoblastic Leukemia)
Outline: as §1

[14] = test system: SCC90 (Head and Neck Carcinoma)
Outline: as §1

[15] = test system: SW1463 (Colorectal Carcinoma)
Outline: as §1

[16] = test system: TK (B-Cell Non-Hodgkin's Lymphoma)
Outline: as §1

NC1(C(=O)N[C@@H](CCO)c2ccc(Cl)cc2)CCN(c2ncnc3[nH]ccc23)CC1 [Capivasertib] + Cn1cnc2c(F)c(Nc3ccc(Br)cc3Cl)c(C(=O)NOCCO)cc21 [Selumetinib] (first compound max 10 µM, 7x7, partner max 10 µM)
Bliss excess [1]: -0.0036
Bliss excess [2]: -0.0333
Bliss excess [3]: -0.0245
Bliss excess [4]: 0.0646
Bliss excess [5]: 0.0263
Bliss excess [6]: 0.0156
Bliss excess [7]: -0.0011
Bliss excess [8]: 0.0218
Bliss excess [9]: 0.0363
Bliss excess [10]: 0.0584
Bliss excess [11]: -0.027
Bliss excess [12]: 0.0064
Bliss excess [13]: -0.016
Bliss excess [14]: 0.0331
Bliss excess [15]: -0.0255
Bliss excess [16]: -0.0189

Cn1cnc2c(F)c(Nc3ccc(Br)cc3Cl)c(C(=O)NOCCO)cc21 [Selumetinib] + CC(C)n1c(=O)n(C)c2cnc3cc(F)c(-c4ccc(OCCCN5CCCCC5)nc4)cc3c21 [AZD1390] (first compound max 10 µM, 7x7, partner max 0.3 µM)
Bliss excess [1]: -0.05
Bliss excess [2]: 0.0019
Bliss excess [3]: -0.0233
Bliss excess [4]: -0.0565
Bliss excess [5]: -0.0296
Bliss excess [6]: -0.0252
Bliss excess [7]: -0.0037
Bliss excess [8]: 0.0225
Bliss excess [9]: -0.0372
Bliss excess [10]: -0.0473
Bliss excess [11]: -0.0464
Bliss excess [12]: 0.0052
Bliss excess [13]: -0.0245
Bliss excess [14]: 0.0124
Bliss excess [15]: -0.0078
Bliss excess [16]: -0.0134

COc1nnc2ccc(N3CCC(c4ccc(OCCN5CCN(C)C(=O)[C@H]5C)cc4)CC3)nn12 [AZD5153] + Cn1cnc2c(F)c(Nc3ccc(Br)cc3Cl)c(C(=O)NOCCO)cc21 [Selumetinib] (first compound max 1 µM, 7x7, partner max 10 µM)
Bliss excess [1]: 0.0114
Bliss excess [2]: 0.0622
Bliss excess [3]: 0.0023
Bliss excess [4]: 0.108
Bliss excess [5]: 0.0397
Bliss excess [6]: 0.0188
Bliss excess [7]: -0.0246
Bliss excess [8]: -0.0169
Bliss excess [9]: -0.0108
Bliss excess [10]: -0.0045
Bliss excess [11]: -0.0256
Bliss excess [12]: 0.0236
Bliss excess [13]: -0.0454
Bliss excess [14]: 0.098
Bliss excess [15]: 0.0243
Bliss excess [16]: -0.0524

COc1nnc2ccc(N3CCC(c4ccc(OCCN5CCN(C)C(=O)[C@H]5C)cc4)CC3)nn12 [AZD5153] + C=CCn1c(=O)c2cnc(Nc3ccc(N4CCN(C)CC4)cc3)nc2n1-c1cccc(C(C)(C)O)n1 [AZD1775] (first compound max 1 µM, partner max 1 µM)
Bliss excess [1]: -0.0724
Bliss excess [2]: -0.0063
Bliss excess [3]: -0.0136
Bliss excess [4]: -0.0045
Bliss excess [5]: -0.0006
Bliss excess [6]: -0.0546
Bliss excess [7]: -0.0419
Bliss excess [8]: -0.0354
Bliss excess [9]: -0.0823
Bliss excess [10]: 0.0251
Bliss excess [11]: -0.0618
Bliss excess [12]: 0.0115
Bliss excess [13]: 0.0184
Bliss excess [14]: -0.0282
Bliss excess [15]: -0.101
Bliss excess [16]: -0.0554

CS(=O)(=O)CCNCc1ccc(-c2ccc3ncnc(Nc4ccc(OCc5cccc(F)c5)c(Cl)c4)c3c2)o1 [Lapatinib] + C[C@@H](Oc1cc(-c2cnn(C3CCNCC3)c2)cnc1N)c1c(Cl)ccc(F)c1Cl [Crizotinib] (first compound max 10 µM, 7x7, partner max 10 µM)
Bliss excess [1]: -0.018
Bliss excess [2]: -0.004
Bliss excess [3]: -0.003
Bliss excess [4]: -0.0307
Bliss excess [5]: 0.003
Bliss excess [6]: -0.0208
Bliss excess [7]: -0.064
Bliss excess [8]: 0.0477
Bliss excess [9]: -0.0255
Bliss excess [10]: -0.0428
Bliss excess [11]: -0.117
Bliss excess [12]: -0.0579
Bliss excess [13]: -0.0183
Bliss excess [14]: 0.0827
Bliss excess [15]: 0.0138
Bliss excess [16]: 0.0129

COc1nnc2ccc(N3CCC(c4ccc(OCCN5CCN(C)C(=O)[C@H]5C)cc4)CC3)nn12 [AZD5153] + C[C@@H]1COCCN1C2=NC(=NC(=C2)C3(CC3)[S@](=N)(=O)C)C4=C5C=CNC5=NC=C4 [AZD6738] (first compound max 1 µM, 7x7, partner max 10 µM)
Bliss excess [1]: -0.0066
Bliss excess [2]: -0.0092
Bliss excess [3]: 0.0327
Bliss excess [4]: -0.0082
Bliss excess [5]: 0.0077
Bliss excess [6]: -0.0453
Bliss excess [7]: 0.0223
Bliss excess [8]: -0.0072
Bliss excess [9]: 0.029
Bliss excess [10]: -0.0013
Bliss excess [11]: -0.0811
Bliss excess [12]: 0.0005
Bliss excess [13]: 0.0145
Bliss excess [14]: 0.0164
Bliss excess [15]: -0.074
Bliss excess [16]: 0.0034

CC(=O)c1c(C)c2cnc(Nc3ccc(N4CCNCC4)cn3)nc2n(C2CCCC2)c1=O [Palbociclib] + CC1(C)CCC(CN2CCN(c3ccc(C(=O)NS(=O)(=O)c4ccc(NCC5CCOCC5)c([N+](=O)[O-])c4)c(Oc4cnc5[nH]ccc5c4)c3)CC2)=C(c2ccc(Cl)cc2)C1 [Venetoclax] (first compound max 10 µM, 7x7, partner max 1 µM)
Bliss excess [1]: -0.0656
Bliss excess [2]: -0.0399
Bliss excess [3]: -0.0391
Bliss excess [4]: -0.042
Bliss excess [5]: -0.0716
Bliss excess [6]: -0.0262
Bliss excess [7]: 0.0196
Bliss excess [8]: -0.0262
Bliss excess [9]: -0.0339
Bliss excess [10]: -0.0254
Bliss excess [11]: -0.143
Bliss excess [12]: -0.0389
Bliss excess [13]: 0.0385
Bliss excess [14]: -0.0435
Bliss excess [15]: -0.0899
Bliss excess [16]: 0.0332

Cn1cnc2c(F)c(Nc3ccc(Br)cc3Cl)c(C(=O)NOCCO)cc21 [Selumetinib] + C=CCn1c(=O)c2cnc(Nc3ccc(N4CCN(C)CC4)cc3)nc2n1-c1cccc(C(C)(C)O)n1 [AZD1775] (first compound max 10 µM, partner max 1 µM)
Bliss excess [1]: -0.0398
Bliss excess [2]: 0.0203
Bliss excess [3]: 0.0057
Bliss excess [4]: 0.0032
Bliss excess [5]: 0.0067
Bliss excess [6]: -0.0042
Bliss excess [7]: -0.0327
Bliss excess [8]: -0.0289
Bliss excess [9]: -0.0564
Bliss excess [10]: -0.0318
Bliss excess [11]: -0.0223
Bliss excess [12]: 0.0314
Bliss excess [13]: -0.0443
Bliss excess [14]: -0.0036
Bliss excess [15]: -0.0367
Bliss excess [16]: -0.0478

COc1nnc2ccc(N3CCC(c4ccc(OCCN5CCN(C)C(=O)[C@H]5C)cc4)CC3)nn12 [AZD5153] + Cc1c2c(nn1C)CSCc1cc(n(C)n1)CSc1cc(c3ccccc3c1)OCCCc1c(C(=O)O)n(C)c3c-2c(Cl)ccc13 [AZD5991] (first compound max 1 µM, 7x7, partner max 1 µM)
Bliss excess [1]: -0.041
Bliss excess [2]: -0.0134
Bliss excess [3]: -0.0727
Bliss excess [4]: 0.0698
Bliss excess [5]: -0.055
Bliss excess [6]: -0.007
Bliss excess [7]: -0.0302
Bliss excess [8]: 0.0346
Bliss excess [9]: 0.0059
Bliss excess [10]: -0.0138
Bliss excess [11]: -0.115
Bliss excess [12]: 0.0698
Bliss excess [13]: 0.0102
Bliss excess [14]: 0.0814
Bliss excess [15]: -0.0631
Bliss excess [16]: -0.0019
